Source: US20090054392A1, “NAPHTHYLPYRIMIDINE, NAPHTHYLPYRAZINE AND NAPHTHYLPYRIDAZINE ANALOGS AND THEIR USE AS AGONISTS OF THE WNT-BETA-CATENIN CELLULAR MESSAGING SYSTEM” (Wyeth, priority 2007, published 2009)

System: Dkk1-LRP5-TCF-Luciferase
Assay: Functional Dkk1-LRP5-TCF-Luciferase Assay in U2OS Cells
Details: for fold induction at 2 µM / fold induction at 20 µM / EC50: Homo sapiens, U2OS; for fold induction at 2 µM: read-out: B = TCF ACTIVITY/DMSO CONTROL Fold induction @ 2.0 uM, 2.0 uM compound; for fold induction at 20 µM: read-out: C = TCF ACTIVITY/DMSO CONTROL Fold induction @ 20.0 uM, 20.0 uM compound; for A = MAX FOLD Induction/DMSO CONTROL: maximum fold induction over DMSO control

SMILES	fold induction at 2 µM	fold induction at 20 µM	A = MAX FOLD Induction/DMSO CONTROL [fold]	EC50 [µM]	C = TCF ACTIVITY/DMSO CONTROL Fold induction @ 20.0 uM (20.0 uM compound, 20 µM) [fold]
c1ccc2cc(-c3ccnc(N4CCCNCC4)n3)ccc2c1 [1-[4-(2-naphthyl)pyrimidin-2-yl]-1,4-diazepane]	1.36	0.85	–	–	–
NCC1CCN(c2nccc(-c3ccc4ccccc4c3)n2)c2ccccc21 (stereo not drawn) [1-{1-[4-(2-naphthyl)pyrimidin-2-yl]-1,2,3,4-tetrahydroquinolin-4-yl}methanamine]	–	–	1.820	–	–
Cc1ccc2cc(-c3ccnc(N4CCC(CN)CC4)n3)ccc2c1 [1-{1-[4-(6-methyl-2-naphthyl)pyrimidin-2-yl]piperidin-4-yl}methanamine]	2.88	–	2.820	1.22	–
COC(=O)NCC1CCN(c2nccc(-c3ccc4ccccc4c3)n2)C1 (stereo not drawn) [methyl ({1-[4-(2-naphthyl)pyrimidin-2-yl]pyrrolidin-3-yl}methyl)carbamate]	1.04	1.08	–	–	–
COC(=O)C(NC(=O)OC(C)(C)C)C1CCN(c2nccc(-c3ccc4ccccc4c3)n2)CC1 (stereo not drawn) [methyl [(tert-butoxycarbonyl)amino]{1-[4-(2-naphthyl)pyrimidin-2-yl]piperidin-4-yl}acetate]	–	0.71	–	–	–
CN(C)[C@H]1CCN([C@H]2CCN(c3nccc(-c4ccc5ccccc5c4)n3)C2)C1 [(3S,3′S)-N,N-dimethyl-1′-[4-(2-naphthyl)pyrimidin-2-yl]-1,3′-bipyrrolidin-3-amine]	2.47	0.02	2.030	–	–
O=C(N[C@@H]1CCN(c2nccc(-c3ccc4ccccc4c3)n2)C1)N1CCCC1 [N-{(3R)-1-[4-(2-naphthyl)pyrimidin-2-yl]pyrrolidin-3-yl}pyrrolidine-1-carboxamide]	1.41	0.27	–	–	–
O=C1CCCCN1CC1CCN(c2nccc(-c3ccc4ccccc4c3)n2)CC1 [1-({1-[4-(2-naphthyl)pyrimidin-2-yl]piperidin-4-yl}methyl)piperidin-2-one]	1.55	0.73	–	–	–
ClCC1CCN(c2nccc(-c3ccc4ccccc4c3)n2)C1 (stereo not drawn) [2-[3-(chloromethyl)pyrrolidin-1-yl]-4-(2-naphthyl)pyrimidine]	1.32	0.49	–	–	–
CC(C)N(C)CCN(C)[C@@H]1CCN(c2nccc(-c3ccc4ccccc4c3)n2)C1 [N-isopropyl-N,N′-dimethyl-N′-{(3R)-1-[4-(2-naphthyl)pyrimidin-2-yl]pyrrolidin-3-yl}ethane-1,2-diamine]	2.2	–	–	–	–
CS(=O)(=O)N[C@H]1CC[C@H](Nc2nccc(-c3ccc4ccccc4c3)n2)CC1 [N-(trans-4-{[4-(2-naphthyl)pyrimidin-2-yl]amino}cyclohexyl)methanesulfonamide]	1.79	2.38	2.940	3.3	–
N#Cc1ccc(C(=O)N[C@H]2CCN(c3nccc(-c4ccc5ccccc5c4)n3)C2)cc1 [4-cyano-N-{(3S)-1-[4-(2-naphthyl)pyrimidin-2-yl]pyrrolidin-3-yl}benzamide]	0.84	1.24	–	–	–
CC(=O)N1CC[C@H](Nc2nccc(-c3ccc4ccccc4c3)n2)C1 [N-[(3S)-1-acetylpyrrolidin-3-yl]-4-(2-naphthyl)pyrimidin-2-amine]	1.15	1.66	–	–	–
OCC1CCCN([C@@H]2CCN(c3nccc(-c4ccc5ccccc5c4)n3)C2)C1 (stereo partly drawn) [(1-{(3R)-1-[4-(2-naphthyl)pyrimidin-2-yl]pyrrolidin-3-yl}piperidin-3-yl)methanol]	1.49	–	–	–	–
O=C1CCCCN1C[C@@H]1CCN(c2nccc(-c3ccc4ccccc4c3)n2)C1 [1-({(3R)-1-[4-(2-naphthyl)pyrimidin-2-yl]pyrrolidin-3-yl}methyl)piperidin-2-one]	1.14	2.33	–	6.85	–
O[C@H]1CCN([C@H]2CCN(c3nccc(-c4ccc5ccccc5c4)n3)C2)C1 [(3S,3′S)-1′-[4-(2-naphthyl)pyrimidin-2-yl]-1,3′-bipyrrolidin-3-ol]	2.1	–	–	–	–
CS(=O)(=O)NCCN1CCN(c2nccc(-c3ccc4ccccc4c3)n2)CC1 [N-(2-{4-[4-(2-naphthyl)pyrimidin-2-yl]piperazin-1-yl}ethyl)methanesulfonamide]	1.31	1.93	1.700	5.4	–
O=C(N[C@H]1CCN(c2nccc(-c3ccc4ccccc4c3)n2)C1)c1ccc(Cl)cc1 [4-chloro-N-{(3S)-1-[4-(2-naphthyl)pyrimidin-2-yl]pyrrolidin-3-yl}benzamide]	1.78	–	–	–	–
OC1CCN(CC2CCN(c3nccc(-c4ccc5ccccc5c4)n3)C2)CC1 (stereo not drawn) [1-({1-[4-(2-naphthyl)pyrimidin-2-yl]pyrrolidin-3-yl}methyl)piperidin-4-ol]	3.52	0.1	2.680	5.53	–

SMILES	fold induction at 2 µM	fold induction at 20 µM	A = MAX FOLD Induction/DMSO CONTROL [fold]	EC50 [µM]	C = TCF ACTIVITY/DMSO CONTROL Fold induction @ 20.0 uM (20.0 uM compound, 20 µM) [fold]
CCCCNc1nccc(-c2ccc3ccccc3c2)n1 [N-butyl-4-(2-naphthyl)pyrimidin-2-amine]	1.51	–	–	–	–
CN1CCN([C@H]2CCN(c3nccc(-c4ccc5ccccc5c4)n3)C2)CC1 [2-[(3S)-3-(4-methylpiperazin-1-yl)pyrrolidin-1-yl]-4-(2-naphthyl)pyrimidine]	5.69	0.01	7.175	0.696	–
COC(=O)N1CCCN(c2nccc(-c3ccc4ccccc4c3)n2)CC1 [methyl 4-[4-(2-naphthyl)pyrimidin-2-yl]-1,4-diazepane-1-carboxylate]	–	1.88	1.930	30	–
N[C@H]1CCN(c2nccc(-c3ccc4ccccc4c3)n2)C1 [(3S)-1-[4-(2-naphthyl)pyrimidin-2-yl]pyrrolidin-3-amine]	1.48	–	–	–	–
NC(=O)NCC1CCN(c2nccc(-c3ccc4ccccc4c3)n2)CC1 [N-({1-[4-(2-naphthyl)pyrimidin-2-yl]piperidin-4-yl}methyl)urea]	1.29	1.18	–	–	–
CN(c1nccc(-c2ccc3ccccc3c2)n1)[C@H]1CC[C@@H](CN)CC1 [N-[cis-4-(aminomethyl)cyclohexyl]-N-methyl-4-(2-naphthyl)pyrimidin-2-amine]	2.7	–	–	–	–
OCC1CCN([C@@H]2CCN(c3nccc(-c4ccc5ccccc5c4)n3)C2)CC1 [(1-{(3R)-1-[4-(2-naphthyl)pyrimidin-2-yl]pyrrolidin-3-yl}piperidin-4-yl)methanol]	1.69	0.01	–	–	–
CN(C)C1CCN(c2nccc(-c3ccc4ccccc4c3)n2)C1 (stereo not drawn) [N,N-dimethyl-1-[4-(2-naphthyl)pyrimidin-2-yl]pyrrolidin-3-amine]	2	1.91	5.503	4.11	–
O=C(c1ccccc1)N1CC[C@@H](Nc2nccc(-c3ccc4ccccc4c3)n2)C1 [N-[(3R)-1-benzoylpyrrolidin-3-yl]-4-(2-naphthyl)pyrimidin-2-amine]	1.84	–	–	–	–
c1ccc2cc(-c3ccnc(N4CCN(CCN5CCOCC5)CC4)n3)ccc2c1 [4-(2-{4-[4-(2-naphthyl)pyrimidin-2-yl]piperazin-1-yl}ethyl)morpholine]	1.53	3.49	2.400	4.6	3.000
c1ccc2cc(-c3ccnc(N4CC[C@H](N5CCCCCC5)C4)n3)ccc2c1 [1-{(3S)-1-[4-(2-naphthyl)pyrimidin-2-yl]pyrrolidin-3-yl}azepane]	3.97	–	3.220	–	–
NCC1CCN(c2nccc(-c3ccc4cc(CN5CCCCC5)ccc4c3)n2)CC1 [1-(1-{4-[6-(piperidin-1-ylmethyl)-2-naphthyl]pyrimidin-2-yl}piperidin-4-yl)methanamine]	1.4	–	–	–	–
OC1CCN([C@H]2CCN(c3nccc(-c4ccc5ccccc5c4)n3)C2)CC1 [1-{(3S)-1-[4-(2-naphthyl)pyrimidin-2-yl]pyrrolidin-3-yl}piperidin-4-ol]	1.31	0.26	–	–	–
CCOC(=O)N[C@H]1CCN(c2nccc(-c3ccc4ccccc4c3)n2)C1 [ethyl {(3S)-1-[4-(2-naphthyl)pyrimidin-2-yl]pyrrolidin-3-yl}carbamate]	1.02	1.94	–	–	–
CCN(CC)c1nccc(-c2ccc3ccccc3c2)n1 [N,N-diethyl-4-(2-naphthyl)pyrimidin-2-amine]	1.75	1.68	1.260	–	–
O=C(N[C@H]1CCN(c2nccc(-c3ccc4ccccc4c3)n2)C1)N1CCOCC1 [N-{(3S)-1-[4-(2-naphthyl)pyrimidin-2-yl]pyrrolidin-3-yl}morpholine-4-carboxamide]	0.93	1.72	–	–	–
CC(C)(C)OC(=O)N[C@H](CO)C1CCN(c2nccc(-c3ccc4ccccc4c3)n2)CC1 [tert-butyl ((1S)-2-hydroxy-1-{1-[4-(2-naphthyl)pyrimidin-2-yl]piperidin-4-yl}ethyl)carbamate]	1.22	0.44	–	–	–
O=C1CCCN1[C@@H]1CCN(c2nccc(-c3ccc4ccccc4c3)n2)C1 [(3′R)-1′-[4-(2-naphthyl)pyrimidin-2-yl]-1,3′-bipyrrolidin-2-one]	1.43	2.12	1.935	4.51	–
NCC1CCN(c2ccnc(-c3ccc4ccccc4c3)n2)CC1 [1-{1-[2-(2-naphthyl)pyrimidin-4-yl]piperidin-4-yl}methanamine]	3.22	0.003	5.673	0.787	–
